Patent US6943151B2, “Method of inhibiting bone resorption and/or promoting bone formation using GLP-2 and related compounds” (Sanos Bioscience A/S, priority 2000, dated 2005)

Columns and labels:
GIP = assay: Level of GIP in blood after oral nutrient intake; format: in vivo, human; settings: oral 75 g fructose; healthy women and men; result in words
Description: (§1) 12 healthy women and men between 30-45, respectively 30-60, were included in a randomised, controlled cross over study comparing the effects of oral fructose on GLP-1, on GIP and on bone turnover. The individuals had not suffered diseases suspected to affect bone turnover such as cancer, rheumatoid arthritis or diseases compromising absorption from the gut or excretion/re-absorption from the kidney nor had they a history of serious diseases, which might influence the conduct of the study. A general laboratory screening including haematology and serum chemistry gave no indication of specific organ dysfunction. The individuals were not under influence of bone active medication, thus more than 3 months had passed since previous treatment with calcium, vitamin D, oestrogen or progestin in any administration form and the individuals had never been treated with bisphosphonates or fluoride.
After fasting from 10 p.m. the evening prior to an experiment, blood samples were collected between 7:30 a.m. and 8:30 a.m. Immediately thereafter oral fructose were initiated. At precisely 1, 2, 3, 6 and 9 hours after the first blood sample, blood samples were collected. A washout period of 2 weeks was instituted between each experiment.
Oral fructose consisted of 75 g fructose dissolved in 300 ml water with juice of a half lemon added. […]

S-CTX (bone resorption) = assay: Serum C-telopeptide fragments of collagen type I degradation (S-CTX) by serum CrossLaps ELISA, marker of bone resorption, after administration to human subjects; format: in vivo
Protocol: In these Examples Haematology and serum chemistry including glucose were measured using an auto analyser (Vitros). Serum FSH was measured by IRMA (Coat-A-Count®, DPC, Los Angeles, Calif.). Serum C-telopeptide fragments of collagen type I degradation (S-CTX) were measured by ELISA, serum CrossLaps™ assay (Osteometer BioTech A/S—Denmark). Serum osteocalcin was determined by ELISA, an assay which determines the N-terminal mid segment of the molecule. Serum insulin and c-peptide were both assessed by RIA (Coat-A-Count® for insulin and Double Antibody C-peptide for c-peptide both DPC, Los Angeles, Calif.).
as §1, with “The individuals were not under influence of bone active medication, thus more than 3 months had passed since previous treatment with calcium, vitamin D, oestrogen or progestin in any administration form and the individuals had never been treated with bisphosphonates or fluoride.” left out

GLP-1 = assay: Level of GLP-1 in blood after oral nutrient intake; format: in vivo, human; settings: after 2 hours; oral 75 g fructose; healthy women and men
Description: as §1
After fasting from 10 p.m. the evening prior to an experiment, blood samples were collected between 7:30 a.m. and 8:30 a.m. Immediately thereafter oral fructose were initiated. […]
The normal mixed meal consisted of rye bread, toast, butter, cheese, jam, yoghurt, banana, and orange juice (total weight 755 g), with an energy content of 3.92 MJ and a protein:carbohydrate:fat energy ratio of 10%:52%:37% evaluated from food tables.

[1] = Level of GLP-2 in blood after subcutaneous GLP-2 injection; format: in vivo; settings: subcutaneous bolus injection of 400 μg synthetic human GLP-2; healthy women and men
Description: 6 healthy women and 3 healthy men between 24-53 were included in a study comparing the effect of a GLP-2 injection on GLP-2intact and on bone turnover.
The description of the methodology of measurement of GLP-2intact and total GLP-2 and the description of the test persons was as described in detail in Hartmann, B. et al., J Clin Endocrinol Metab 2000; 85 (8):2884-2888.
Blood samples were drawn at regular intervals before, during, and after the injection.
The test persons received a subcutaneous bolus injection of 400 μg synthetic human GLP-2.

Molecule | level of GIP (GIP) | reduction in S-CTX (S-CTX (bone resorption); after 2 hours, oral intake after overnight fast, 12 healthy women and men) [%] | occurrence (level) of GLP-1 compared to the baseline of 100% at To (GLP-1) [%] | reduction in S-CTX (S-CTX (bone resorption); after 3 hours, subcutaneous bolus injection of 400 μg, 6 healthy women and 3 healthy men) [%] | time to peak level of GLP-2 after the injection [1] [h]
O=C(CO)[C@@H](O)[C@H](O)[C@H](O)CO [fructose] | almost maintained at the baseline | 36 | 220 | – | –
GLP-2: synthetic human GLP-2, 33 amino acid peptide fragment of proglucagon (126-158) | – | – | – | 33 | 1
